Patent US12461089B2, “Olfactory receptor involved in the perception of musk fragrance and the use thereof” (ChemoSensoryX Biosciences SA, priority 2017, dated 2025)
Where two headings read alike, the source gives them in different places.

How the values were obtained:
Format in all cases: cell-based
OR5A2_variant 1 = molecular target: T1, OR5A2_variant 1 (Homo sapiens, UniProt Q8NGI9); assay: Luciferase reporter concentration-response analysis on OR5A2_variant 1
T1 construct: expressed in transfected cells; host or cells: HEK293T-RTP1A1/RTP2
T1 sequence (Q8NGI9 1-324): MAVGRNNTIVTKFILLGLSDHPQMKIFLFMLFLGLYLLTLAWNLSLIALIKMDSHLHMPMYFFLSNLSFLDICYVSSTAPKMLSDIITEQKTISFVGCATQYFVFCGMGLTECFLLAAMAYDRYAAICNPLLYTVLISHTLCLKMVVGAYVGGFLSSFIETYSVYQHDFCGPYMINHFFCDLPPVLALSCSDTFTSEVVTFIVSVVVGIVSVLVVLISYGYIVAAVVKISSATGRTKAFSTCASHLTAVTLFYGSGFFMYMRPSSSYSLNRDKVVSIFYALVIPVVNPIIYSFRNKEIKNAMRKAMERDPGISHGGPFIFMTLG
Protocol: (§1) HEK293T-RTP1A1/RTP2 cells were maintained in minimal essential medium (EMEM, Lonza) containing 10% fetal bovine serum (M10). These cells were generated by transfecting HEK293T with an expression vector containing the sequences of the chaperone proteins RTP1A1 and RTP2 and a resistance gene to puromycin, using Lipofectamine 2000.
(§2) Odorant molecules were diluted at a concentration of 1 mole/liter (M) into dimethyl sulfoxide (DMSO) to generate stock solutions.
(§3) For concentration-response analysis, serial dilutions of the tested molecules were prepared from stock solutions in EMEM plated into 96-well plates.
(§4) For the initial deorphanisation screening and dose-response analysis, a Luciferase-based gene reporter assay (Promega, Leiden, The Nederlands) was used. Briefly, cells were platted on Poly-D-lysine-coated 96-well and transfected with a plasmid containing the CRE-luciferase and a plasmid containing the olfactory receptor. Sixteen hours after transfection, the culture medium was replaced by serum-free EMEM containing the tested compounds at a determined concentration. After four hours of incubation at 37° C. degree, cells were lysed and processed for luminescence measurement. Luminescene emission was recorded. Results were expressed as luciferase activity (Relative […] Unit (RLU)) or as percentage of the response induced by 10 μM of the adenylate cyclase activator Forskolin. An empty plasmid is used as negative control.
(§5) 35 musk compounds from the four structurally different chemical groups previously described were tested in concentration-response analyses (Table 2). In each experiment, an empty vector was used as negative control (pEFIBRHO). […] Full results including the calculated EC50 are given in Table 2; “non active” represent negative experiments, no activation after testing.

OR11A1 = molecular target: T2, OR11A1 (Homo sapiens, UniProt Q9GZK7); assay: Luciferase reporter concentration-response analysis on OR11A1
T2 construct: expressed in transfected cells; host or cells: HEK293T-RTP1A1/RTP2
T2 sequence (Q9GZK7 1-315): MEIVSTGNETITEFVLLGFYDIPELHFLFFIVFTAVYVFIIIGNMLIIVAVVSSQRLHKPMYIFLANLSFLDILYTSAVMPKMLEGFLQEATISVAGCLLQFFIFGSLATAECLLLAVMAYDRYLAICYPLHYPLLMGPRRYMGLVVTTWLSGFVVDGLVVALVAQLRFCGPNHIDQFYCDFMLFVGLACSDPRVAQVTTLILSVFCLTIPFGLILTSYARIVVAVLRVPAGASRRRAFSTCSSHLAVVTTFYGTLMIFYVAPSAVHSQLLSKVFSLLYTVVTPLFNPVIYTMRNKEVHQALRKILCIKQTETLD
Protocol: as §1, §2, §3, §4, §5
These compounds were tested in concentration-response analysis in luciferase assays, as described previously. In each experiment, an empty vector was used as negative control (pEFIBRHO).

OR5AN1 = molecular target: T3, OR5AN1 (Homo sapiens, UniProt Q8NGI8, E89G); assay: Luciferase reporter concentration-response analysis on OR5AN1; settings: concentration-response analysis, luciferase reporter, values given as negative (log) numbers, Non Active = no activation after testing; for EC50: read-out: calculated EC50, OR5AN1 (converted)
T3 construct: expressed in transfected cells; host or cells: HEK293T-RTP1A1/RTP2
T3 sequence (Q8NGI8 1-311 E89G): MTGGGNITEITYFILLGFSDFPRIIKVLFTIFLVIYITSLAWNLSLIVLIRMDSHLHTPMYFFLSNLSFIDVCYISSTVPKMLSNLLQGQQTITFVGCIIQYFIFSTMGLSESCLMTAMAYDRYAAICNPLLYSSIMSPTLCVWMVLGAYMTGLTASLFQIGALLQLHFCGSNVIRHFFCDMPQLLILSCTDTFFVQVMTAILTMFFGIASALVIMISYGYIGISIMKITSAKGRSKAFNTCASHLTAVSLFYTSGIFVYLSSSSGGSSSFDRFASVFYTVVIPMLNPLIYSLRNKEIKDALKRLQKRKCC
Protocol: as §1, with “2000. The recombinant cell population, used in these experiments, was selected by adding 10 μg/ml of puromycin into the culture medium and subsequently subcloned (WO 2014/191047 A1).” for “2000.”
as §2, §3, §4
In these analyses we also included ORs previously described as musk-specific receptors OR5AN1 (SEQ ID n° 7) (WO 2015/020158 A1, Shirasu et al. 2014 Neuron 81, 165-78, Sato-Akuhara N et al. 2016 J Neurosci. 36(16), 4482-91) and OR11A1 (SEQ ID n° 8) (WO 2016/201152 A1). […] Therefore, OR5A1 was included in the analyses. 35 musk compounds from the four structurally different chemical groups previously described were tested in concentration-response analyses (Table 2). In each experiment, an empty vector was used as negative control (pEFIBRHO). […] Full results including the calculated EC50 are given in Table 2; “non active” represent negative experiments, no activation after testing. […]

[1] = concentration-response analysis, luciferase reporter, values given as negative (log) numbers, read-out: calculated EC50, OR5A2 (converted)
[2] = concentration-response analysis, luciferase reporter, values given as negative (log) numbers, Non Active = no activation after testing, read-out: calculated EC50, OR11A1 (converted)
[3] = concentration-response analysis, luciferase reporter, values given as negative (log) numbers

CC(=O)c1cc2c(cc1C)C(C)(C)C(C)CC2(C)C (stereo not drawn) [Tonalide ®] showed an EC50 (OR5A2_variant 1; [1]) of 0.759 µM and an EC50 (OR11A1; [2]) of 18.2 µM.

O=C1CCCCCCCCCCC(=O)OCCO1 [Musk MC4] was tested, and the EC50 (OR5A2_variant 1; [1]) was 38 µM and the EC50 (OR5AN1) was 75.9 µM.

For CC1COCc2cc3c(cc21)C(C)(C)C(C)C3(C)C (stereo not drawn) [Galaxolide ®], the EC50 (OR5A2_variant 1; [1]) was 1.05 µM.

For C/C(=C\C(C)C)C(C)OC(C)(C)COC(=O)C1CC1 (stereo not drawn) [Sylkolide], the EC50 (OR5A2_variant 1) was 17.8 µM.

O=C1CCCCCCCCOCCCCCCO1 [Oxalide T] gave an EC50 (OR5A2_variant 1; [1]) of 8.32 µM and an EC50 (OR5AN1) of 32.4 µM.

CC(=O)c1cc2c(cc1C)C(C)(C)C(C)C2(C)C (stereo not drawn) [Phantolide] was tested, and the EC50 (OR5A2_variant 1; [1]) was 4.57 µM and the EC50 (OR11A1; [2]) was 7.59 µM.

CC1CC(C)(C)C2=C(CC3(C)OC3C2)C1(C)C (stereo not drawn) [malaxone] showed an EC50 (OR5A2_variant 1) of 29.5 µM and an EC50 (OR5AN1) of 309 µM.

For ω-6-Hexadecen- lactone, the “calculated EC50, OR5A2” value (OR5A2_variant 1; [3]) was −5.17 and the “calculated EC50, OR5AN1” value (OR5AN1) was −4.68.

Work on COc1c(C(C)(C)C)cc([N+](=O)[O-])c(C)c1[N+](=O)[O-] [Musk Ambrette, 2,6-dinitro-3-methoxy-4-tert-butyltoluene] yielded an EC50 (OR5A2_variant 1; [1]) of 8.71 µM and an EC50 (OR5AN1) of 692 µM.

In the case of Helvetolide, the “calculated EC50, OR5A2” value (OR5A2_variant 1; [3]) is reported as −3.86.

O=C1CCCCCCCCC/C=C/CCCO1 [Habanolide] gave an EC50 (OR5A2_variant 1) of 16.2 µM and an EC50 (OR5AN1) of 66.1 µM.

Compound CC1CC(C)(C)c2ccc(C=O)cc2C1(C)C (stereo not drawn) [Fixal] has an EC50 (OR5A2_variant 1) of 10.2 µM and an EC50 (OR11A1) of 8.91 µM.

For CC(=O)c1cc(C(C)(C)C)cc2c1CCC2(C)C [crysolide], the EC50 (OR5A2_variant 1; [1]) was 22.4 µM and the EC50 (OR5AN1) was 120 µM.

In the case of muscone, the “calculated EC50, OR5A2” value (OR5A2_variant 1; [3]) is reported as −5.25 and the “calculated EC50, OR5AN1” value (OR5AN1) is reported as −5.37.

For Cyclopenta- decanone, the “calculated EC50, OR5AN1” value (OR5AN1) was −4.95.

With Isoambrettolide the “calculated EC50, OR5A2” value (OR5A2_variant 1; [3]) was −4.72.

Cc1c([N+](=O)[O-])cc2c(c1[N+](=O)[O-])C(C)(C)CC2(C)C [Moskene, 1,1,3,3,5-pentamethyl-4,6-dinitro-2H-indene] was tested, and the EC50 (OR5A2_variant 1; [1]) was 1.86 µM.

O=C1CCCCCC/C=C\CCCCCCC1 [Globanone (Animusk)] showed an EC50 (OR5A2_variant 1; [1]) of 3.98 µM and an EC50 (OR5AN1) of 2.24 µM.

For c1ncc2c(n1)CCCCCCCCCC2 [Musk 77], the EC50 (OR5A2_variant 1; [1]) was 5.13 µM and the EC50 (OR11A1; [2]) was 9.12 µM.

Work on CC(=O)c1cc2c(cc1C)C(C)(C)C(C)C2C(C)C (stereo not drawn) [traseolide] yielded an EC50 (OR5A2_variant 1; [1]) of 1.95 µM and an EC50 (OR11A1; [2]) of 7.08 µM.

For C=C(C)C1CCC(C)=C1CC(C)(C)COC(=O)CC (stereo not drawn) [cyclopentenyl propionate musk], the EC50 (OR5A2_variant 1) was 28.2 µM.

O=C1CCCCCCCCCCCCCCO1 [Thibetolide = Exaltolide] was tested, and the EC50 (OR5A2_variant 1; [1]) was 43.7 µM and the EC50 (OR5AN1) was 87.1 µM.

With CC1C/C=C\CCCCCCCCC(=O)OCC1 (stereo not drawn) [nirvanolide] the EC50 (OR5A2_variant 1) was 19.5 µM and the EC50 (OR5AN1) was 417 µM.
